# Results as given in US10259810B2, “N-sulfonylated pyrazolo[3,4-b]pyridin-6-carboxamides and method of use” (AbbVie S.à.r.l., priority 2015, dated 2019).
# How the values were obtained:
# ΔF508-CFTR [1] = target: T1, ΔF508-CFTR (Homo sapiens, UniProt P13569, DEL508-508); assay: CFTR cell surface levels using HRP-tagged ΔF508-CFTR expressing CFBE cells, in the presence of a co-corrector; type: cell-based; conditions: HRP-tagged ΔF508-CFTR CFBE cells, in the presence of 3 μM co-corrector; for EC50: read-out: EC50
# T1 construct: host or cells: CFBE41o-, doxycycline-inducible
# T1 sequence (P13569 with tags, fused parts or gaps DEL508-508): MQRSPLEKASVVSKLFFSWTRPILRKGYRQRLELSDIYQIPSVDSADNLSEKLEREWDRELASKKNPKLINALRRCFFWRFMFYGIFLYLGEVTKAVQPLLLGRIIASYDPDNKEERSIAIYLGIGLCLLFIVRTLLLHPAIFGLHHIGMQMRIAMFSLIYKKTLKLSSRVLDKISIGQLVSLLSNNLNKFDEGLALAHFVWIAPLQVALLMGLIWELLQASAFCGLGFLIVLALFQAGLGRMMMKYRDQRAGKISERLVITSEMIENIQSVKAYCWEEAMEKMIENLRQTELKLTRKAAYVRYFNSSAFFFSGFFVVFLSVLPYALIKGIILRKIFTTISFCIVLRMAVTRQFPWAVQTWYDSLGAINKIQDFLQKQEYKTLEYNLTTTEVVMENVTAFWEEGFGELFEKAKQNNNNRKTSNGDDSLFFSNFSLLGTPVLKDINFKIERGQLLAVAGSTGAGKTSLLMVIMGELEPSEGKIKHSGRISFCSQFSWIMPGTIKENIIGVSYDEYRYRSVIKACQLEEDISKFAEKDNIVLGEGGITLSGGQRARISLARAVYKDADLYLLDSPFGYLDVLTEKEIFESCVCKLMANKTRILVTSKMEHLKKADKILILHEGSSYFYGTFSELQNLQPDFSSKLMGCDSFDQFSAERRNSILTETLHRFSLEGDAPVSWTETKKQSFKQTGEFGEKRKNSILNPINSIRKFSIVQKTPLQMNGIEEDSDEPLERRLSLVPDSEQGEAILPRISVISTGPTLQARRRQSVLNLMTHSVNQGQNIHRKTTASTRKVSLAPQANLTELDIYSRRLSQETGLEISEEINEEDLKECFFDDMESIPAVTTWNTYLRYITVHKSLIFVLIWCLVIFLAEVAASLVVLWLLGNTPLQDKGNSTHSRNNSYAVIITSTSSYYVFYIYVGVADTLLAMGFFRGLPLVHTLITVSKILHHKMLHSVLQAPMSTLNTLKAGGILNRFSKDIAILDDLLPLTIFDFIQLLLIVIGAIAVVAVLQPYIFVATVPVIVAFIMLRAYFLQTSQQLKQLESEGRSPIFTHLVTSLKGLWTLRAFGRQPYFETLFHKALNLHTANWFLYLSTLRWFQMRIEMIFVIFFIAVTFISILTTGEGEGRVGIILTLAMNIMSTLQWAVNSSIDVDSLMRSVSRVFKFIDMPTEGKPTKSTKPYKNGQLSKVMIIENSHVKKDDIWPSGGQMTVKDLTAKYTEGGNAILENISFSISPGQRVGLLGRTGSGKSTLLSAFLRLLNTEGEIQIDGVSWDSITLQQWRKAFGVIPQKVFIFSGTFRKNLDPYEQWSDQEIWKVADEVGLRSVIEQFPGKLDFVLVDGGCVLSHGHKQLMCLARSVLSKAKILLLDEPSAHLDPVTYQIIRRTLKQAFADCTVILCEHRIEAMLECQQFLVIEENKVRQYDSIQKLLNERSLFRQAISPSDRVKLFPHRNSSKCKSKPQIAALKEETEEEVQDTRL
# How it was run: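 Chemiluminescent read-out of surface HRP (15 min, dark) after PBS washes. Activity is normalized as 100×(sample−DMSO)/(3 μM co-corrector alone−DMSO).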
# ΔF508-CFTR [2] = target: T1, ΔF508-CFTR; assay: CFTR cell surface levels using HRP-tagged ΔF508-CFTR expressing CFBE cells, intrinsic corrector capacity; type: cell-based; set-up: % Activation: concentration or dose not given beside the values; conditions: HRP-tagged ΔF508-CFTR expressing CFBE41o- cells, compound alone (intrinsic corrector capacity), 20 hours at 33° C.; for EC50: read-out: EC50
# How it was run: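 Surface ΔF508-CFTR was measured as HRP chemiluminescence from an extracellular-loop-4 tag, expressed as percent activity between DMSO and a […] corrector control.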
compound,measurement,setting,value
"CC(C)c1nn(-c2ccc(F)cc2)c2nc(C(=O)NS(C)(=O)=O)cc(OCCCN3CCOCC3)c12 [Compound 292, 1-(4-fluorophenyl)-N-(methanesulfonyl)-4-[3-(morpholin-4-yl)propoxy]-3-(propan-2-yl)-1H-pyrazolo[3,4-b]pyridine-6-carboxamide]",% Activation,ΔF508-CFTR [1],422.55%
same,EC50,ΔF508-CFTR [1],565 nM
same,% Activation,ΔF508-CFTR [2],217.9%
same,EC50,ΔF508-CFTR [2],1060 nM
"CC(C)c1nn(-c2ccc(F)cc2)c2nc(C(=O)NS(C)(=O)=O)cc(OCC3(C)COC3)c12 [Compound 293, 1-(4-fluorophenyl)-N-(methanesulfonyl)-4-[(3-methyloxetan-3-yl)methoxy]-3-(propan-2-yl)-1H-pyrazolo[3,4-b]pyridine-6-carboxamide]",% Activation,ΔF508-CFTR [1],317.1%
same,EC50,ΔF508-CFTR [1],480 nM
same,% Activation,ΔF508-CFTR [2],113.3%
same,EC50,ΔF508-CFTR [2],622 nM
"CC(C)c1nn(-c2ccc(F)cc2)c2nc(C(=O)NS(C)(=O)=O)cc(OCC3CCCO3)c12 (centres unmarked) [Compound 295, 1-(4-fluorophenyl)-N-(methanesulfonyl)-4-[(oxolan-2-yl)methoxy]-3-(propan-2-yl)-1H-pyrazolo[3,4-b]pyridine-6-carboxamide]",% Activation,ΔF508-CFTR [1],298.07%
same,EC50,ΔF508-CFTR [1],697 nM
same,% Activation,ΔF508-CFTR [2],129.6%
same,EC50,ΔF508-CFTR [2],1050 nM
"CC(=O)N1CCC(COc2cc(C(=O)NS(C)(=O)=O)nc3c2c(C2CCC2)nn3-c2ccccc2)CC1 [Compound 296, 4-[(1-acetylpiperidin-4-yl)methoxy]-3-cyclobutyl-N-(methanesulfonyl)-1-phenyl-1H-pyrazolo[3,4-b]pyridine-6-carboxamide]",% Activation,ΔF508-CFTR [1],329.13%
same,EC50,ΔF508-CFTR [1],168 nM
same,% Activation,ΔF508-CFTR [2],154.7%
same,EC50,ΔF508-CFTR [2],396 nM
"COCC1CCN(c2cc(C(=O)NS(=O)(=O)CCC(=O)N(C)C)nc3c2c(C2CCC2)nn3-c2ccccc2)CC1 [Compound 298, 3-cyclobutyl-N-[3-(dimethylamino)-3-oxopropane-1-sulfonyl]-4-[4-(methoxymethyl)piperidin-1-yl]-1-phenyl-1H-pyrazolo[3,4-b]pyridine-6-carboxamide]",% Activation,ΔF508-CFTR [1],481.2%
same,EC50,ΔF508-CFTR [1],81 nM
same,% Activation,ΔF508-CFTR [2],312.9%
same,EC50,ΔF508-CFTR [2],282 nM
"CC(C)c1nn(-c2ccc(F)cc2)c2nc(C(=O)NS(C)(=O)=O)cc(OCCCN(C)C)c12 [Compound 299, 4-[3-(dimethylamino)propoxy]-1-(4-fluorophenyl)-N-(methanesulfonyl)-3-(propan-2-yl)-1H-pyrazolo[3,4-b]pyridine-6-carboxamide]",% Activation,ΔF508-CFTR [1],267.2%
same,EC50,ΔF508-CFTR [1],2510 nM
same,% Activation,ΔF508-CFTR [2],81.41%
same,EC50,ΔF508-CFTR [2],3330 nM
"CS(=O)(=O)NC(=O)c1cc(-c2ccc(N3CCC(C#N)CC3)nc2)c2c(OC3COC3)nn(-c3ccccc3)c2n1 [Compound 300, 4-[6-(4-cyanopiperidin-1-yl)pyridin-3-yl]-N-(methanesulfonyl)-3-[(oxetan-3-yl)oxy]-1-phenyl-1H-pyrazolo[3,4-b]pyridine-6-carboxamide]",% Activation,ΔF508-CFTR [1],266.55%
same,EC50,ΔF508-CFTR [1],109 nM
same,% Activation,ΔF508-CFTR [2],119.9%
same,EC50,ΔF508-CFTR [2],309 nM
"CN(C)CCCOc1cc(C(=O)NS(C)(=O)=O)nc2c1c(C1CCC1)nn2-c1ccccc1 [Compound 303, 3-cyclobutyl-4-[3-(dimethylamino)propoxy]-N-(methanesulfonyl)-1-phenyl-1H-pyrazolo[3,4-b]pyridine-6-carboxamide]",% Activation,ΔF508-CFTR [1],339.95%
same,EC50,ΔF508-CFTR [1],834 nM
same,% Activation,ΔF508-CFTR [2],149.9%
same,EC50,ΔF508-CFTR [2],3330 nM
"CC(C)c1nn(-c2ccc(F)cc2)c2nc(C(=O)NS(C)(=O)=O)cc(OCC3(C)CC(F)(F)C3)c12 [Compound 306, 4-[(3,3-difluoro-1-methylcyclobutyl)methoxy]-1-(4-fluorophenyl)-N-(methanesulfonyl)-3-(propan-2-yl)-1H-pyrazolo[3,4-b]pyridine-6-carboxamide]",% Activation,ΔF508-CFTR [1],321.1%
same,EC50,ΔF508-CFTR [1],82.4 nM
same,% Activation,ΔF508-CFTR [2],146.7%
same,EC50,ΔF508-CFTR [2],158 nM
"CC(C)c1nn(-c2ccc(F)cc2)c2nc(C(=O)NS(C)(=O)=O)cc(OCCCN3CCCCC3)c12 [Compound 307, 1-(4-fluorophenyl)-N-(methanesulfonyl)-4-[3-(piperidin-1-yl)propoxy]-3-(propan-2-yl)-1H-pyrazolo[3,4-b]pyridine-6-carboxamide]",% Activation,ΔF508-CFTR [1],299.25%
same,EC50,ΔF508-CFTR [1],1280 nM
same,% Activation,ΔF508-CFTR [2],172.7%
same,EC50,ΔF508-CFTR [2],3330 nM
"CC(C)c1nn(-c2ccc(F)cc2)c2nc(C(=O)NS(C)(=O)=O)cc(OCCN(C(C)C)C3COC3)c12 [Compound 309, 1-(4-fluorophenyl)-N-(methanesulfonyl)-4-{2-[(oxetan-3-yl)(propan-2-yl)amino]ethoxy}-3-(propan-2-yl)-1H-pyrazolo[3,4-b]pyridine-6-carboxamide]",% Activation,ΔF508-CFTR [1],303.6%
same,EC50,ΔF508-CFTR [1],224 nM
same,% Activation,ΔF508-CFTR [2],149%
same,EC50,ΔF508-CFTR [2],444 nM
"CC(C)c1nn(-c2ccc(F)cc2)c2nc(C(=O)NS(C)(=O)=O)cc(OCC3COCCN3C(C)C)c12 (centres unmarked) [Compound 310, 1-(4-fluorophenyl)-N-(methanesulfonyl)-3-(propan-2-yl)-4-{[4-(propan-2-yl)morpholin-3-yl]methoxy}-1H-pyrazolo[3,4-b]pyridine-6-carboxamide]",% Activation,ΔF508-CFTR [1],251.5%
same,EC50,ΔF508-CFTR [1],924 nM
same,% Activation,ΔF508-CFTR [2],66.84%
same,EC50,ΔF508-CFTR [2],692 nM
"COCCS(=O)(=O)NC(=O)c1cc(OCC2CCOCC2)c2c(C3CCC3)nn(-c3ccccc3)c2n1 [Compound 315, 3-cyclobutyl-N-(2-methoxyethanesulfonyl)-4-[(oxan-4-yl)methoxy]-1-phenyl-1H-pyrazolo[3,4-b]pyridine-6-carboxamide]",% Activation,ΔF508-CFTR [1],315.5%
same,EC50,ΔF508-CFTR [1],102 nM
same,% Activation,ΔF508-CFTR [2],154.87%
same,EC50,ΔF508-CFTR [2],218 nM
"CC(C)c1nn(-c2ccc(F)cc2)c2nc(C(=O)NS(C)(=O)=O)cc(N3CCC(N(C)C)CC3)c12 [Compound 319, 4-[4-(dimethylamino)piperidin-1-yl]-1-(4-fluorophenyl)-N-(methanesulfonyl)-3-(propan-2-yl)-1H-pyrazolo[3,4-b]pyridine-6-carboxamide]",% Activation,ΔF508-CFTR [1],232%
same,EC50,ΔF508-CFTR [1],980 nM
same,% Activation,ΔF508-CFTR [2],34.315%
same,EC50,ΔF508-CFTR [2],298 nM
"CS(=O)(=O)NC(=O)c1cc(N2CCC(O)(CC#N)CC2)c2c(C3CCC3)nn(-c3ccccc3)c2n1 [Compound 326, 4-[4-(cyanomethyl)-4-hydroxypiperidin-1-yl]-3-cyclobutyl-N-(methanesulfonyl)-1-phenyl-1H-pyrazolo[3,4-b]pyridine-6-carboxamide]",% Activation,ΔF508-CFTR [1],325.3%
same,EC50,ΔF508-CFTR [1],730 nM
same,% Activation,ΔF508-CFTR [2],167.1%
same,EC50,ΔF508-CFTR [2],2380 nM
"CC(C)c1nn(-c2cccc(N(C)C)c2)c2nc(C(=O)NS(=O)(=O)CCCN=[N+]=[N-])cc(-c3ccc(N=[N+]=[N-])cc3)c12 [Compound 327, 4-(4-azidophenyl)-N-(3-azidopropane-1-sulfonyl)-1-[3-(dimethylamino)phenyl]-3-(propan-2-yl)-1H-pyrazolo[3,4-b]pyridine-6-carboxamide]",% Activation,ΔF508-CFTR [1],433.9%
same,EC50,ΔF508-CFTR [1],99.9 nM
same,% Activation,ΔF508-CFTR [2],239.4%
same,EC50,ΔF508-CFTR [2],145 nM
"CS(=O)(=O)NC(=O)c1cc(N2CCN(CC(F)(F)F)CC2)c2c(C3CCC3)nn(-c3ccccc3)c2n1 [Compound 329, 3-cyclobutyl-N-(methanesulfonyl)-1-phenyl-4-[4-(2,2,2-trifluoroethyl)piperazin-1-yl]-1H-pyrazolo[3,4-b]pyridine-6-carboxamide]",% Activation,ΔF508-CFTR [1],318.4%
same,EC50,ΔF508-CFTR [1],777 nM
same,% Activation,ΔF508-CFTR [2],163.85%
same,EC50,ΔF508-CFTR [2],158 nM
